For one assay, the target named is Carbonic anhydrase 9 (Homo sapiens, UniProt Q16790).
The target in the next assay is T1, Carbonic anhydrase 4 (Bos taurus, UniProt Q95323).
T1 sequence (Q95323 whole entry): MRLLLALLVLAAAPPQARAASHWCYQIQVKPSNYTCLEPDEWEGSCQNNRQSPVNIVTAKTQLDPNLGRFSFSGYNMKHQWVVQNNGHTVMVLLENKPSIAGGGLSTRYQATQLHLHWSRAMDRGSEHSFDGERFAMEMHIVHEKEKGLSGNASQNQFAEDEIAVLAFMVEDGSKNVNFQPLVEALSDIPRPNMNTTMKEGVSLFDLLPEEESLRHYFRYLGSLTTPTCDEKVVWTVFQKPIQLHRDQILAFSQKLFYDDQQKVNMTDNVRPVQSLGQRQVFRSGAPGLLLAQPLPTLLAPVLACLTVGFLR

A further assay deals with Carbonic anhydrase 1 (Homo sapiens, UniProt P00915).
Carbonic anhydrase 1, sequence (P00915 whole entry): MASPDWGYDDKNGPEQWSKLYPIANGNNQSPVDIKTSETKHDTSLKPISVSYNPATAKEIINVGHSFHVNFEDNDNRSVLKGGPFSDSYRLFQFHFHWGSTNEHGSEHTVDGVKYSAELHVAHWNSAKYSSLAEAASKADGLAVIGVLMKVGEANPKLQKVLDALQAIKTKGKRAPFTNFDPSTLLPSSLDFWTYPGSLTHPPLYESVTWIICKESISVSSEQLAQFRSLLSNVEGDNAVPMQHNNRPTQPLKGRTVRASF

Structures are written as SMILES.

The Ki is the dissociation constant of the complex between target and ligand, obtained from inhibition or displacement. A high value points to weaker binding.

Turning to `Nc1ccc(S(N)(=O)=O)cc1I`, the Ki on Carbonic anhydrase 9 amounted to 285 nM. On to `NS(=O)(=O)c1ccc(CCO)cc1`, for which the Ki at Carbonic anhydrase 9 worked out at 22 nM. Still for that read-out and setting: under `Cn1nc(S(N)(=O)=O)sc1=N` stands 30 nM. Take `Nc1cc(C(F)(F)F)c(S(N)(=O)=O)cc1S(N)(=O)=O` [2,4-DISULFAMYLTRIFLUOROMETHYLANILINE]: the Ki at Carbonic anhydrase 4 amounted to 154 nM. This counts as sub-micromolar.

As to `Nc1ccc(S(N)(=O)=O)cc1Cl`, at Carbonic anhydrase 9, the Ki came out at 264 nM. Turning to `Nc1ccc(S(=O)(=O)Nc2ccc(S(N)(=O)=O)cc2)cc1`, the Ki on Carbonic anhydrase 4 was 129 nM; on Carbonic anhydrase 9, 34 nM. Take `Nc1ccc(S(=O)(=O)NCCc2ccc(S(N)(=O)=O)cc2)cc1`: the Ki at Carbonic anhydrase 4 was 72 nM; on Carbonic anhydrase 9 it was 24 nM. For `Nc1ccc(S(=O)(=O)Nc2ccccc2S(N)(=O)=O)cc1`, the values for the Ki at Carbonic anhydrase 4 and on Carbonic anhydrase 1 were 144 nM and 185 nM, respectively.

For the molecule `NS(=O)(=O)c1cccc2ccccc12`, the Ki turned out to be 438 nM at Carbonic anhydrase 4, 23000 nM at Carbonic anhydrase 1 and 30 nM at Carbonic anhydrase 9. On Carbonic anhydrase 9, `Nc1nccc(Nc2ccc(S(N)(=O)=O)cc2)n1` showed a Ki of 16 nM. Turning to `Nc1ccc(S(N)(=O)=O)cc1F`, on Carbonic anhydrase 9, the affinity, expressed as Ki, was 245 nM. This Ki lies about 15-fold higher than the previous one.

As for `Nc1ccc(S(=O)(=O)NCc2ccc(S(N)(=O)=O)cc2)cc1`, the affinity on Carbonic anhydrase 4 corresponds to a Ki of 72 nM.

On to `Nc1ccccc1S(N)(=O)=O`, for which, at Carbonic anhydrase 9, the affinity corresponds to a Ki of 33 nM. Consider `NS(=O)(=O)c1ccc(C(=O)O)cc1` [CARZENIDE], for which the Ki on Carbonic anhydrase 4 was determined as 86 nM; on Carbonic anhydrase 9 it was 26 nM. Consider `NS(=O)(=O)c1ccc(CO)cc1`, for which affinity on Carbonic anhydrase 9 was put at a Ki of 21 nM.

Consider `NS(=O)(=O)c1cccc2cccnc12`, for which the results for the Ki at Carbonic anhydrase 4 and at Carbonic anhydrase 9 were 415 nM and 32 nM, respectively.

(Values after ChEMBL document CHEMBL1136636, “Carbonic anhydrase inhibitors: inhibition of the tumor-associated isozyme IX with aromatic and heterocyclic sulfonamides” (Bioorg Med Chem Lett, 2003).)
